Like-named read-outs stand apart in the source and are kept apart here.
Assays:
[1] = biological target: T1, CB1 (Rattus norvegicus, UniProt P20272); experiment: Radioligand competition binding with [3H]-CP-55,940, rat brain membranes; conditions: for Emax / rCB1 binding Emax [SEM]: maximal radioligand displacement; for Emax: read-out: rCB1 binding Emax [SEM]; for Ki / rCB1 binding pKi [95% CI]: [3H]-CP-55,940 competition, rat brain membranes
T1 construct: membrane preparations from rat brain (source of CB1); tissue Bioivt RAT00BRAINMZN; host or cells: rat brain
Description: The results were analyzed using nonlinear regression to determine the IC50 and Ki values for each ligand (Prism by GraphPad Software, Inc., San Diego, CA). The Ki values are expressed as the mean of two to three experiments each performed in triplicate.

[2] = biological target: hCB1 (Homo sapiens, UniProt P21554); experiment: bioSens-All ebBRET effector biosensor signaling profiling, HEK293; type: cell-based; design: host or cells: HEK293 (HEK293SL clone), transient
Description: ebBRET-based effector membrane translocation biosensor assays were conducted at Domain Therapeutics NA Inc. (Montreal, QC, Canada) as previously described. […] HEK293 cells were maintained in Dulbecco’s Modified Eagle Medium (DMEM) (Wisent) supplemented with 1% penicillin- streptomycin (Wisent) and 10% (or 2 % for transfection) fetal bovine serum (Wisent) at 37°C with 5% CO2. All biosensor-coding plasmids and related information are the property of Domain Therapeutics NA Inc. The total amount of transfected DNA was adjusted and kept constant at 1 μg per mL of cell culture to be transfected using salmon sperm DNA (Invitrogen) as ‘carrier’ DNA, PEI (polyethylenimine 25 kDa linear, PolyScience) and DNA (3:1 ml PEI:mg DNA ratio) were first diluted separately in 150 mM NaCl then mixed and incubated for at least 20 minutes at room temperature to allow for the formation of DNA/PEI complexes. During the incubation, HEK293 cells were detached, counted, and re-suspended in maintenance medium to a 350,000 cells per mL density. At the end of the incubation period, the DNA/PEI mixture was added to the cells. Cells were finally distributed in 96-well plates (White Opaque 96-well /Microplates, Greiner) at a density of 35,000 cells per well. Forty-eight hours post-transfection, medium was aspirated and replaced with 100 μl of Hank’s Balanced Salt Solution buffer (HBSS) (Wisent) per well using 450-Select TS Biotek plate washer. After 60 min incubation in this medium, 10 μL of 10 μM e-Coelenterazine Prolume Purple (Methoxy e-CTZ) (Nanolight) was added to each well for a final concentration of 1 μM immediately followed by addition of increasing concentrations of the test compounds to each well using the HP D300 digital dispenser (Tecan). All compounds were assayed at 22 concentrations with each biosensor after a 10-minute room temperature incubation period. […] All BRET ratios were standardized using the universal BRET (uBRET) equation: uBRET=BRETratio-A/B-A×10,000 where A is the BRET ratio obtained from transfection of negative control and B is the BRET ratio obtained from transfection of positive control. […] The data were analyzed using the four-parameter logistic non-linear regression model in GraphPad Prism 9.1 and data were presented as means ± CIs of 1–4 independent experiments.
The SEM was calculated for the logEmax/EC50 ratios using the following equation: SEM=σ/n where σ is the standard deviation, and n is the number of experiments.

[3] = read-out: rCB1 binding Ki [95% CI]
[4] = HEK293, read-out: hCB1 Gi1 Emax [95% CI]
[5] = HEK293, read-out: hCB1 GoB Emax [95% CI]
[6] = HEK293, read-out: hCB1 Gz Emax [95% CI]

T1 sequence (P20272 whole entry): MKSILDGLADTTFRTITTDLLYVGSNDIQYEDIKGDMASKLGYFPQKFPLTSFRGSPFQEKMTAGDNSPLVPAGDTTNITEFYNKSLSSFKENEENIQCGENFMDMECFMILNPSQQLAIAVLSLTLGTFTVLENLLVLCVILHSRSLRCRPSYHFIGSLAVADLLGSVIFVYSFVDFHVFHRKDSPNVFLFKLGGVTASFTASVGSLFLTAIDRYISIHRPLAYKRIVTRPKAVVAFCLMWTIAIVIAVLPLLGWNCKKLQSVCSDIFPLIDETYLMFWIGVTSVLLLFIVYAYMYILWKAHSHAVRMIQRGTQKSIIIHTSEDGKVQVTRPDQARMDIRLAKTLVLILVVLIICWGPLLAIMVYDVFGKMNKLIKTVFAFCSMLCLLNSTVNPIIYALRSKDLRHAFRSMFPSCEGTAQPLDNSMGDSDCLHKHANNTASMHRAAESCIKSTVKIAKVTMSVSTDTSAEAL
Chain of hCB1 (P21554 whole entry, the tested form may be a part): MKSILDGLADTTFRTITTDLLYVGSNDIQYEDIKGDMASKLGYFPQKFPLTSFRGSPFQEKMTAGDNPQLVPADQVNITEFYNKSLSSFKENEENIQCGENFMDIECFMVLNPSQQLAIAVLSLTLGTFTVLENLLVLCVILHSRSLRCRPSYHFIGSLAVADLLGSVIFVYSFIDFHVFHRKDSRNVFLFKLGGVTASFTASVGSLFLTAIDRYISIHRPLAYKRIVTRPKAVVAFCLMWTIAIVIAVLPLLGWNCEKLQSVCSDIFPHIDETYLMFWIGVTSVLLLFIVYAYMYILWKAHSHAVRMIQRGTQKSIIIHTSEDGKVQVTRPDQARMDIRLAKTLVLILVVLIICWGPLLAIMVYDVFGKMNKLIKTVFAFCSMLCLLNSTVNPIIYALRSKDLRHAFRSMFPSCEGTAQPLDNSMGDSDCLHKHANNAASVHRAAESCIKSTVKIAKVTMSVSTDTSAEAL

Question: With `CC(=O)C(C)(NC(=O)c1cc(C)n(-c2cccc(C(F)(F)F)c2)n1)c1cccs1` (stereo not shown) [‘4156] as the molecule, how does the Emax [1] read?
Answer: 91%

Question: What about the Ki ([1]; rCB1 binding Ki [95% CI]) of the same molecule?
Answer: 13.5 nM

Question: With `Cc1cc(C(=O)N(C)C(c2ccco2)c2ccco2)nn1-c1cccc(C(F)(F)F)c1` [‘4388] as the molecule, how does the “rCB1 binding pKi [95% CI]” value [1] read?
Answer: 5.9 [5.7 – 6.0]

Question: What about the “rCB1 binding Emax [SEM]” value [1] of the same molecule?
Answer: 113%

Question: What about the Ki [1, 3] of the same molecule?
Answer: 1360 nM

Question: `Cc1cc(C(=O)NC(C)(c2ccco2)c2ccco2)nn1-c1cccc(C(F)(F)F)c1` [‘4936] was tested. Which Emax [1] did it give?
Answer: 88%

Question: What about the Ki ([1]; rCB1 binding Ki [95% CI]) of the same molecule?
Answer: 7.5 nM

Question: Which Emax [2, 4] does the source give for `Cc1nn(Cc2ccc(Cl)cc2)c(C)c1C(=O)OCC1CSc2ccccc2O1` (stereo not shown) [‘5463] here?
Answer: 31%

Question: What about the Emax [2, 5] of the same molecule?
Answer: 32%

Question: And the EC50 ([2]; hCB1 Gi1 EC50 [95% CI])?
Answer: 4940 nM

Question: What about the EC50 ([2]; hCB1 GoB EC50 [95% CI]) of the same molecule?
Answer: 7470 nM

Question: What about the Emax [1] of the same molecule?
Answer: 88%

Question: What about the Ki ([1]; rCB1 binding Ki [95% CI]) of the same molecule?
Answer: 825 nM

Question: How did the Emax [1] turn out when `Cc1cc(C(=O)NC(C)(c2ccccc2)c2ccco2)nn1-c1cccc(C(F)(F)F)c1` (stereo not shown) [‘5806] was run?
Answer: 100%

Question: What about the Ki ([1]; rCB1 binding Ki [95% CI]) of the same molecule?
Answer: 8 nM

Question: For `COC(=O)[C@@H](c1cccs1)N(C)C(=O)c1cc(C)n(-c2cccc(C(F)(F)F)c2)n1` [‘6000], which Emax [1] is on record?
Answer: 96%

Question: What about the Ki ([1]; rCB1 binding Ki [95% CI]) of the same molecule?
Answer: 1460 nM

Question: `COC(=O)C(c1ccco1)N(C)C(=O)c1cc(C)n(-c2cccc(C(F)(F)F)c2)n1` (stereo not shown) [‘6425] was tested. Which Emax [1] did it give?
Answer: 108%

Question: And the Ki ([1]; rCB1 binding Ki [95% CI])?
Answer: 934 nM

Question: How did the “hCB1 Gi1 pEC50 [95% CI]” value ([2]; Gi1 sensor) turn out when `COC(=O)[C@@H]1[C@@H]2CC[C@@H]2CN1C(=O)c1cc(C)n(-c2cccc(C(F)(F)F)c2)n1` [‘6448] was run?
Answer: 6.5 [6.4 – 6.5]

Question: What about the “hCB1 Gi1 Emax [95% CI]” value ([2]; Gi1 sensor, normalized to CP-55,940) of the same molecule?
Answer: 87 [86 – 88]

Question: What about the “hCB1 GoB pEC50 [95% CI]” value ([2]; GoB sensor) of the same molecule?
Answer: 6.5 [6.4 – 6.6]

Question: What about the “hCB1 GoB Emax [95% CI]” value ([2]; GoB sensor, normalized to CP-55,940) of the same molecule?
Answer: 90 [87 – 91]

Question: And the “hCB1 Gz pEC50 [95% CI]” value ([2]; Gz sensor)?
Answer: 6.1 [5.9 – 6.4]

Question: What about the “hCB1 Gz Emax [95% CI]” value ([2]; Gz sensor, normalized to CP-55,940) of the same molecule?
Answer: 151 [130 –172]

Question: What about the EC50 ([2]; read-out: hCB1 Gi1 EC50 [95% CI], Gi1 sensor) of the same molecule?
Answer: 345 nM

Question: What about the EC50 ([2]; read-out: hCB1 GoB EC50 [95% CI], GoB sensor) of the same molecule?
Answer: 310 nM

Question: What about the EC50 ([2]; read-out: hCB1 Gz EC50 [95% CI], Gz sensor) of the same molecule?
Answer: 728 nM

Question: And the “rCB1 binding pKi [95% CI]” value [1]?
Answer: 6.1 [5.9 – 6.3]

Question: What about the “rCB1 binding Emax [SEM]” value [1] of the same molecule?
Answer: 103%

Question: What about the Ki [1, 3] of the same molecule?
Answer: 866 nM

Question: For `CC(=O)C(c1cccs1)N(C)C(=O)c1cc(C)n(-c2cccc(C(F)(F)F)c2)n1` (stereo not shown) [‘6829], which Emax [2, 4] is on record?
Answer: 68%

Question: What about the Emax [2, 5] of the same molecule?
Answer: 49%

Question: What about the Emax [2, 6] of the same molecule?
Answer: 70%

Question: What about the EC50 ([2]; hCB1 Gi1 EC50 [95% CI]) of the same molecule?
Answer: 4060 nM

Question: And the EC50 ([2]; hCB1 GoB EC50 [95% CI])?
Answer: 1010 nM

Question: And the EC50 ([2]; hCB1 Gz EC50 [95% CI])?
Answer: 1350 nM

Question: What about the Emax [1] of the same molecule?
Answer: 106%

Question: What about the Ki ([1]; rCB1 binding Ki [95% CI]) of the same molecule?
Answer: 1050 nM

Question: For `Cc1nc(CC2CC2)oc1-c1nc(Cc2cc3c(cc2Br)OCO3)no1` [‘7019], which Ki ([1]; rCB1 binding Ki [95% CI]) is on record?
Answer: 4040 nM

Question: What does the source list for `Cc1c(C(=O)OCC2CSc3ccccc3O2)cnn1Cc1ccccc1` (stereo not shown) [‘7800]?
Answer: Emax [2, 4]: 34%; Emax [2, 5]: 21%; EC50 ([2]; hCB1 Gi1 EC50 [95% CI]): 6790 nM; EC50 ([2]; hCB1 GoB EC50 [95% CI]): 597 nM; Ki ([1]; rCB1 binding Ki [95% CI]): 1010 nM

Question: With `COC(=O)C(NC(=O)c1cc(-c2ccccc2)n(-c2cccc(C(F)(F)F)c2)n1)c1cccs1` (stereo not shown) [‘8079] as the molecule, how does the Emax [1] read?
Answer: 104%

Question: And the Ki ([1]; rCB1 binding Ki [95% CI])?
Answer: 18.5 nM

Question: Which results are given for `Cc1cc(C(=O)NC(c2ccccc2)c2ccco2)nn1-c1cccc(C#N)c1` (stereo not shown) [‘12565]?
Answer: Emax [2, 4]: 28%; Emax [2, 5]: 25%; Emax [2, 6]: 51%; EC50 ([2]; hCB1 Gi1 EC50 [95% CI], Gi1 sensor): 104 nM; EC50 ([2]; hCB1 GoB EC50 [95% CI], GoB sensor): 44.8 nM; EC50 ([2]; hCB1 GoB pEC50 [95% CI], GoB sensor): 39.8 nM; EC50 ([2]; hCB1 Gz EC50 [95% CI], Gz sensor): 54.6 nM; Emax [1]: 97%; Ki ([1]; rCB1 binding Ki [95% CI]): 301 nM

Question: For `COC(=O)C(NC(=O)c1cc(C)n(-c2cccc(C#N)c2)n1)c1ccsc1` (stereo not shown) [‘31604], which Emax [1] is on record?
Answer: 100%

Question: What about the Ki ([1]; rCB1 binding Ki [95% CI]) of the same molecule?
Answer: 801 nM

Source: publication doi:10.1101/2023.02.27.530254, “Large library docking for cannabinoid-1 receptor agonists with reduced side effects” (bioRxiv, 2024)
